{"source": "paper PMC11480511", "about": "(Scientific Reports, 2024)", "experiment_in_all_cases": "Western blot of protein expression in LOX IMVI cells", "assay_type_in_all_cases": "cell-based, human", "conditions_in_all_cases": "control = 1", "key": {"active caspase-3": {"system": "active caspase-3", "experimental": "(§1) To evaluate the expression level of the apoptosis modulatory markers Bax, caspase 3 and PARP-1, western blot was performed as formerly described. Three different groups of LOX IMVI cells were permitted to grow to reach 70–80% confluence in […] flasks. The first group of LOX IMVI cells was treated with compound 3i. […] The media was taken out after 48 h, and cells underwent three rounds of ice-cold PBS washing. RIPA lysis buffer [consisting of Tris-HCl pH 7.6 (25 mM), NaCl (150 mM), EDTA (5 mM), NP-40 or Triton X-100 (1%), sodium deoxycholate (1%), SDS1 (1%)] with the proper phosphatase and a protease inhibitor was used to create the whole-cell lysate for 30 min. After centrifuging the mixture at 12,000 rpm for 20 min and sonicating it for five minutes, the supernatant was collected, split into aliquots, and kept at -80 °C. The Biuret method was used to determine protein content[27],[28]. Proteins in each matched cell lysate were denatured in 2 Laemmli buffer containing 5% β--mercaptoethanol at 95 °C for 5 min. For SDS-PAGE electrophoresis, 20 µg of protein per lane were loaded at 100 volts through a 6% stacking gel, then at 125 volts through a 10% resolving gel for around 2 h, and then transferred to a PVDF membrane using a semidry transfer apparatus (made by Cleaver Scientific) for 25 min. The PVDF membrane was first incubated for one hour at 4 °C in TBS buffer containing 0.1% Tween (TBST) and 5% fat-free milk, then overnight at 4 °C with monoclonal anti-Bax, anti-PARP-1, and anti-caspase-3 as primary antibodies (Cell Signalling Technology) at a dilution of 1:500. Membranes were first treated overnight, then three times washed in TBST buffer, then incubated at room temperature for 60 min with the corresponding HRP (horse radish peroxidase)-linked secondary antibodies (Dako). Then the substrate for the chemiluminescent Western ECL (Perkin Elmer, Waltham, MA) was added to the blot as described by the manufacturer by incubating the membranes with equal volumes of ECL solution A and ECL solution B for 1 min."}, "PARP-1": {"system": "PARP-1", "experimental": "as §1"}, "Bax": {"system": "Bax", "experimental": "as §1"}}, "data": [{"smiles": "O=C(O)c1cn(C2CC2)c2cc(N3CCN(C(=O)CCCN4C(=O)S/C(=C\\c5ccc(F)cc5)C4=O)CC3)c(F)cc2c1=O", "note": "[3i]", "values": [{"measurement": "Caspace-3 Optical density (OD)", "setting": "active caspase-3", "value": 3.14}, {"measurement": "PARP-1 OD", "setting": "PARP-1", "value": 0.87}, {"measurement": "Bax OD", "setting": "Bax", "value": 4.13}]}]}
